{
  "source": "paper PMC12596218",
  "about": "(Journal of Lipid Research, 2025)",
  "key": {"ASBT": {"biological_target": "T1, ASBT (Homo sapiens, UniProt Q12908)", "T1 construct": "stably transfected with the full open reading frames of human NTCP, ASBT, SOAT, OATP1B1, OATP1B3, OATP2B1, and murine Asbt (mAsbt); expressed in transfected cells; host or cells: HEK293 (Flp-In), stably transfected, tetracycline-induced", "T1 sequence (Q12908 1-348)": "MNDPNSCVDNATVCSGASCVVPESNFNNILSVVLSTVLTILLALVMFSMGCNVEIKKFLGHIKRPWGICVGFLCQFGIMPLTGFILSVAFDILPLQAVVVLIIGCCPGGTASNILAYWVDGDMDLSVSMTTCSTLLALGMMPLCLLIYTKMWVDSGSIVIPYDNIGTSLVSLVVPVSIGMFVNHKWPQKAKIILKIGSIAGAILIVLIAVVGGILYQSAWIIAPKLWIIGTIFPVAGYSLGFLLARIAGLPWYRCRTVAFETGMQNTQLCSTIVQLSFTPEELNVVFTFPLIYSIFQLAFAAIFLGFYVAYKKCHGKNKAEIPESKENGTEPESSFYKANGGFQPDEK", "test": "Transport inhibition and recovery assay (inhibitor washout) in ASBT-HEK293 cells", "assay_type": "cell-based", "conditions": "3 μM inhibitor 5 min; for ASBT inhibition pattern after inhibitor washout and inhibitor-free incubation: recovery time up to 240 min", "protocol": "HEK293 cells stably expressing ASBT were seeded onto poly-L-lysine-coated 96-well plates, induced with 1 μg/ml tetracycline, and grown to confluence over 72 h at 37°C. Non-carrier-expressing HEK293 cells were used as control. Then, cells were washed with tempered (37°C) PBS and equilibrated for 5 min with STB. […] After inhibitor preincubation, cells were washed with tempered (37°C) PBS and further incubated in inhibitor-free DMEM (Thermo Fisher Scientific) for 30, 60, 120, or 240 min at 37°C. […] Finally, cell associated radioactivity was determined using the MicroBeta2 liquid scintillation counter (Revvity). For each inhibitor, the mean values from noncarrier-expressing HEK293 cells were set to 0% and transport measurements in the absence of inhibitor (solvent control) were set to 100%.\nIn the second setup, the inhibitor was thoroughly washed out after the preincubation phase and cells were placed on inhibitor-free medium for different time intervals of 0–240 min (indicated by “recovery time” in Fig. 7A)."}, "NTCP": {"biological_target": "T2, NTCP (Homo sapiens, UniProt Q14973)", "T2 construct": "stably transfected with the full open reading frames of human NTCP, ASBT, SOAT, OATP1B1, OATP1B3, OATP2B1, and murine Asbt (mAsbt); expressed in transfected cells; host or cells: HEK293 (Flp-In), stably transfected, tetracycline-induced", "T2 sequence (Q14973 1-349)": "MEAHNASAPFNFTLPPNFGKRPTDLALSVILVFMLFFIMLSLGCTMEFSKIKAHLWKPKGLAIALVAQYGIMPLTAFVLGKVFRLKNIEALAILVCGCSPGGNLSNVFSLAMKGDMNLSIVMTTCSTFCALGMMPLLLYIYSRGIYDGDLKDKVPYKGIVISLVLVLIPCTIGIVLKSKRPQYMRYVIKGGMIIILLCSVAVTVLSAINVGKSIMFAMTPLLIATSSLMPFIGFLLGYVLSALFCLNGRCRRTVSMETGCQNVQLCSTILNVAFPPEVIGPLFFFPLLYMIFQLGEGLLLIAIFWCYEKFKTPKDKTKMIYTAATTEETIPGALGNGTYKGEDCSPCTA", "test": "[3H]TC transport and inhibition assay in NTCP-HEK293 cells", "assay_type": "cell-based", "conditions": "1 μM [3H]TC; for NTCP inhibition (in words): inhibitor up to 100 μM; for IC50: 10 min, NTCP-HEK293, two independent experiments", "excerpt": "Human embryonic kidney HEK293 cells, stably transfected with the full open reading frames of human NTCP, ASBT, SOAT, OATP1B1, OATP1B3, OATP2B1, and murine Asbt (mAsbt) were used as reported ([18], [20], [21], [22], [23]). The NTCP, ASBT, and mAsbt constructs were C-terminally tagged with the FLAG epitope, and the SOAT construct was C-terminally tagged with green fluorescent protein. Non-transfected Flp-In HEK293 cells (Thermo Fisher Scientific) served as the control. All cell lines were maintained at 37°C, 5% CO2 and 95% humidity in DMEM/F-12 medium (Thermo Fisher Scientific) supplemented with 10% fetal calf serum (Sigma-Aldrich), 4 mM L-glutamine (PAA) and penicillin/streptomycin (PAA). Expression of the respective carrier protein was induced by tetracycline treatment at 1 μg/ml (Carl Roth GmbH + Co. KG).\nCells were seeded onto poly-L-lysine-coated 96-well plates, induced with 1 μg/ml tetracycline, and grown to confluence over 72 h at 37°C. Then, cells were washed with tempered (37°C) phosphate-buffered saline (PBS, containing 137.0 mM NaCl, 2.7 mM KCl, 1.5 mM KH2PO4, and 7.3 mM Na2HPO4, at pH 7.4) and preincubated with 80 μl sodium transport buffer (STB, containing 142.9 mM NaCl, 4.7 mM KCl, 1.2 mM MgSO4, 1.2 mM KH2PO4, 1.8 mM CaCl2, and 20.0 mM HEPES, at pH 7.4) for 5 min at 37°C. For inhibition studies, the medium was replaced by 80 μl STB containing the respective inhibitor or solvent alone and cells were further incubated for 5 min at 37°C. Transport experiments were started by adding 20 μl of a 5-fold concentrated substrate solution (solved in STB). For transport experiments under sodium-free conditions the same buffer composition was used as for STB, but sodium chloride was substituted with equimolar concentrations of choline chloride as previously reported ([20], [24]). Transport experiments were stopped by washing twice with ice-cold PBS and the plates were kept cool on ice until adding the lysis buffer [1% sodium dodecyl sulfate (SDS) and 1 N NaOH]. Then, the cell-associated radioactivity of the respective tritium-labeled substrate or ligand was quantified by liquid scintillation counting using MicroScint-20 scintillation cocktail (Revvity) in a Packard Microplate Scintillation Counter TopCount NXT (Packard Instrument Company). For IC50 transport inhibition measurements, the mean uptake values measured in non-carrier-expressing HEK293 control cells were defined as 0% uptake control and were subtracted from all other values. Values from cells without inhibitor and solvent alone were set to 100%. Finally, all net transport data were expressed as uptake or binding as % of control. All transport or inhibition graphs were generated with GraphPad Prism 6 (GraphPad). Determination of half maximal inhibitory concentrations (IC50) was done by nonlinear regression analysis using the equation log (inhibitor) versus response—variable slope settings. All data points of the IC50 curves represent means ± SD of quadruplicate determinations. For Km measurements, BS uptake in the absence of sodium was regarded as carrier-independent unspecific uptake and was subtracted from the transport rates in the presence of sodium to obtain carrier-specific uptake rates (indicated as dashed lines). From the specific uptake rates, Michaelis Menten Km values were calculated by non-linear regression analysis."}, "OATP1B1": {"test_system": "OATP1B1", "conditions": "cited from earlier work; for IC50: read-out: IC50 OATP1B1 inhibition"}, "OATP1B3": {"test_system": "OATP1B3", "conditions": "cited from earlier work; for IC50: read-out: IC50 OATP1B3 inhibition"}, "[1]": {"conditions": "in vitro studies, ref PMDA Goofice Report on the Deliberation Results"}, "[2]": {"conditions": "ref 65 Zamek-Gliszczynski et al. (2021)"}, "[3]": {"conditions": "in vitro, ref FDA NDA 214662 Livmarli"}, "[4]": {"conditions": "in vitro studies, ref FDA NDA 215498 BYLVAY"}, "[5]": {"conditions": "ref EMA EPAR Product Information Bylvay"}},
  "note": "Values joined by “and” are separate entries in the source; they are usually repeats but may differ in a detail not shown here. Identical values can stand only once. Like-named read-outs stand apart in the source and are kept apart here.",
  "data": [
    {"smiles": "CCCCC1(CCCC)CS(=O)(=O)c2ccc(N(C)C)cc2[C@@H](c2ccc(OCCCC[N+]34CCN(CC3)CC4)cc2)[C@H]1O", "note": "[SC-435]", "values": [
      {"measurement": "ASBT inhibition pattern after inhibitor washout and inhibitor-free incubation", "setting": "ASBT", "value": "intermediate inhibition pattern"},
      {"measurement": "NTCP inhibition (in words)", "setting": "NTCP", "value": "no significant NTCP inhibition"}
    ]},
    {"smiles": "CCCCC1(CCCC)CN(c2ccccc2)c2cc(SC)c(OCC(=O)N[C@@H](C(=O)NCC(=O)O)c3ccccc3)cc2S(=O)(=O)C1", "note": "[elobixibat]", "values": [
      {"measurement": "ASBT inhibition pattern after inhibitor washout and inhibitor-free incubation", "setting": "ASBT", "value": "intermediate inhibition pattern"},
      {"measurement": "IC50", "setting": "OATP1B1; [1]", "value": 0.258, "unit": "µM"},
      {"measurement": "IC50", "setting": "OATP1B3; [1]", "value": "> 0.6", "unit": "µM"},
      {"measurement": "IC50", "setting": "NTCP", "value": "36.3 µM and 66.1 µM"}
    ]},
    {"smiles": "CCCC[C@]1(CC)CS(=O)(=O)c2cc(CNC(CC(=O)O)CC(=O)O)c(OC)cc2[C@@H](c2ccccc2)N1", "note": "[linerixibat]", "values": [
      {"measurement": "ASBT transport activity recovered directly after inhibitor washout", "setting": "ASBT; 0 min recovery", "value": "about 37%"},
      {"measurement": "ASBT recovery after washout and 30 min in inhibitor-free medium", "setting": "ASBT; 30 min recovery", "value": "mostly recovered ASBT"},
      {"measurement": "ASBT inhibition pattern after inhibitor washout and inhibitor-free incubation", "setting": "ASBT", "value": "quick and full recovery"},
      {"measurement": "Substrate of OATP1B1", "setting": "OATP1B1", "value": "is a substrate"},
      {"measurement": "IC50", "setting": "OATP1B1; [2]", "value": 2.69, "unit": "µM"},
      {"measurement": "Substrate of OATP1B3", "setting": "OATP1B3", "value": "is a substrate"},
      {"measurement": "IC50", "setting": "OATP1B3; [2]", "value": 0.265, "unit": "µM"},
      {"measurement": "NTCP inhibition (in words)", "setting": "NTCP", "value": "no significant NTCP inhibition"}
    ]},
    {"smiles": "CCCCC1(CCCC)CS(=O)(=O)c2ccc(N(C)C)cc2[C@@H](c2ccc(OCc3ccc(C[N+]45CCN(CC4)CC5)cc3)cc2)[C@H]1O", "note": "[maralixibat]", "values": [
      {"measurement": "ASBT inhibition pattern after inhibitor washout and inhibitor-free incubation", "setting": "ASBT", "value": "retained full ASBT uptake inhibition"},
      {"measurement": "OATP1B1 inhibition (in words)", "setting": "OATP1B1; [3]", "value": "In vitro, maralixibat did not inhibit the transporters OATP1B1 and OATP1B3."},
      {"measurement": "OATP1B3 inhibition (in words)", "setting": "OATP1B3; [3]", "value": "In vitro, maralixibat did not inhibit the transporters OATP1B1 and OATP1B3."},
      {"measurement": "IC50", "setting": "NTCP", "value": "91.5 µM and 98.5 µM"}
    ]},
    {"smiles": "CCCCC1(CCCC)CN(c2ccccc2)c2cc(SC)c(OCC(=O)N[C@@H](C(=O)N[C@@H](CC)C(=O)O)c3ccc(O)cc3)cc2S(=O)(=O)N1", "note": "[odevixibat]", "values": [
      {"measurement": "ASBT inhibition pattern after inhibitor washout and inhibitor-free incubation", "setting": "ASBT", "value": "retained full ASBT uptake inhibition"},
      {"measurement": "IC50", "setting": "OATP1B1; [4]", "value": 0.308, "unit": "µM"},
      {"measurement": "OATP1B1 inhibition (in words)", "setting": "OATP1B1; [5]", "value": "Odevixibat does not inhibit OATP1B1 and OATP1B3."},
      {"measurement": "IC50", "setting": "OATP1B3; [4]", "value": 0.697, "unit": "µM"},
      {"measurement": "OATP1B3 inhibition (in words)", "setting": "OATP1B3; [5]", "value": "Odevixibat does not inhibit OATP1B1 and OATP1B3."},
      {"measurement": "IC50", "setting": "NTCP", "value": "9.9 µM and 17 µM"}
    ]}
  ]
}
